Assay results as given in patent US7841299B2, “Method and apparatus for applying hoof care, sanitizing, or treatment solutions to the feet or hooves of animals” (Jot Holdings, LLC, priority 2007, dated 2010).

Test system: active lesions (interdigital dermatitis or hairy warts)

O=S(=O)([O-])[O-].[Cu+2] [copper sulfate]
lesions per week, average (50 gallons water + 25 lbs copper sulfate per 400 cows, once per day, 4 days per week, 1,600 cow dairy): 22 lesions per week | lesions per week, high (same regimen, 8 week record): 36 | lesions per week, low (same regimen, 8 week record): 13
